From ChEMBL document CHEMBL4017547, “Influences of Histidine-1 and Azaphenylalanine-4 on the Affinity, Anti-inflammatory, and Antiangiogenic Activities of Azapeptide Cluster of Differentiation 36 Receptor Modulators” (J Med Chem, 2017) come the findings set out here.

Active and inactive are the calls of the source. No cut-off for these calls is given here. Starred links: 1 amine or outer side, 2 acyl side, 3 side chain; linkers in the order of their positions; H or OH if unused. Non-standard residues stand in square brackets, D forms with d. Residues, ends and D or L forms follow the SMILES beside them. dTrp(2-Me) = Cc1[nH]c2ccccc2c1C[C@@H](N)C(=O)O; azaTyr = O=C(N(Cc1ccc(O)cc1)N[*:1])[*:2]; azaPhe = O=C(N(Cc1ccccc1)N[*:1])[*:2]

Data set [1] concerns the target Platelet glycoprotein 4 (Mus musculus) (UniProt Q08857). In words: Modulation of CD36 in mouse […] cells assessed as inhibition of R-FSL1-induced NO over production at 1 uM preincubated for 1 hr followed by overnight R-FSL1 stimulation by DAN-fluorescence assay relative to control. Type of data set: cell-based.
Data set [2] shares this target. Briefly: Modulation of CD36 in mouse J774A.1 cells assessed as inhibition of R-FSL1-induced NO over production at 1 uM preincubated for 1 hr followed by overnight R-FSL1 stimulation by DAN-fluorescence assay relative to control. The format is cell-based.
In data set [3] the target is Platelet glycoprotein 4 (Rattus norvegicus, UniProt Q07969). In words: Inhibition of photoactivatable [125I]-Tyr-Bpa-Ala-hexarelin binding to CD36 in Sprague-Dawley rat heart membranes after 60 mins by SDS-PAGE analysis. The format is cell membranes, Membrane.
The target of data set [4] is Platelet glycoprotein 4 (Rattus norvegicus) (UniProt Q07969). In words: Inhibition of photoactivatable [125I]-Tyr-Bpa-Ala-hexarelin binding to CD36 in Sprague-Dawley rat heart membranes after 60 mins by SDS-PAGE analysis relative to H-His-D-Trp-Ala-aza(3-hydroxy)Phe-D-Phe-Lys-NH2. Type of data set: cell membranes. The note with it: Membrane.
For data set [5], the species on record is Mus musculus. Briefly: Anti-angiogenic activity in mouse sclera/choroid/retinal pigment epithelium complex assessed as reduction in microvascular sprouting at 1 uM after 24 hrs by microscopic analysis. The format is functional.
Data set [6] in a line: Pro-angiogenic activity in mouse sclera/choroid/retinal pigment epithelium complex assessed as increase in microvascular sprouting at 1 uM after 24 hrs by microscopic analysis. The format is ADME.

Sequence of Platelet glycoprotein 4 (Mus musculus) (Q08857 whole entry): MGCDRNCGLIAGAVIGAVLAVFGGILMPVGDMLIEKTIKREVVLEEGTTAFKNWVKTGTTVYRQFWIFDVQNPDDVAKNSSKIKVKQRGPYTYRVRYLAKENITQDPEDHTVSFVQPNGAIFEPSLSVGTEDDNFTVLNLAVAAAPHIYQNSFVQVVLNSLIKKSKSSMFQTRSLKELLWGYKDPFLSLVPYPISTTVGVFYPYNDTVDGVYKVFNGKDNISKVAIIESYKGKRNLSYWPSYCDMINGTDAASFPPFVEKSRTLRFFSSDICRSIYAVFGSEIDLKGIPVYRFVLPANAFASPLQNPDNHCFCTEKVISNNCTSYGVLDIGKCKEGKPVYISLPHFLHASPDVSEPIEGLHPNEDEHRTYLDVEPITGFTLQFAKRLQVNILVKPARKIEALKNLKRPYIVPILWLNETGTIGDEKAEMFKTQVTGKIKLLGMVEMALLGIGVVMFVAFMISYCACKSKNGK
Sequence of Platelet glycoprotein 4 (Q07969 whole entry): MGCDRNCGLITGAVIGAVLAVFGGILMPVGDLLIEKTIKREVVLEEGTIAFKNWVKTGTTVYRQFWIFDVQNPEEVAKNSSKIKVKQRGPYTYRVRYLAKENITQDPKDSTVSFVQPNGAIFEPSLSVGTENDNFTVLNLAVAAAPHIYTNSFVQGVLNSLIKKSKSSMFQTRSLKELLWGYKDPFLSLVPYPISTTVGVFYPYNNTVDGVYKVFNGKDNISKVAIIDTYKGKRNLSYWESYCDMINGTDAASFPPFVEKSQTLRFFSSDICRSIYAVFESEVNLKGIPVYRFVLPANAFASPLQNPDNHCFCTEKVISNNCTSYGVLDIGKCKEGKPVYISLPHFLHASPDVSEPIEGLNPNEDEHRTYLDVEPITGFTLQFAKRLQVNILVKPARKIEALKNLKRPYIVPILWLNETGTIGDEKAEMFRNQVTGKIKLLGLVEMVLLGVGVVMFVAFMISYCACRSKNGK
Sequence of Platelet glycoprotein 4 (Rattus norvegicus) (Q07969 whole entry): as above

`C[C@H](NC(=O)[C@@H](Cc1c[nH]c2ccccc12)NC(=O)[C@@H](N)Cc1cnc[nH]1)C(=O)NN(Cc1ccc(Br)cc1)C(=O)N[C@H](Cc1ccccc1)C(=O)N[C@@H](CCCCN)C(N)=O`: the inhibition entry in data set [1] and in data set [2] was “Active” each time. In addition, the half-inhibitory concentration (IC50) in data set [3] was 3.6 µM. In data set [4], the fold change (FC) was 7.8. Also, in data set [5], the outcome was Active.

Consider `C[C@H](N)C(=O)N[C@H](Cc1c[nH]c2ccccc12)C(=O)N[C@@H](C)C(=O)NN(Cc1ccccc1)C(=O)N[C@H](Cc1ccccc1)C(=O)N[C@@H](CCCCN)C(N)=O` (H-A[dW]A[azaPhe][dF]K-NH2), for which the inhibition result in data set [1] and in data set [2] was “Active” each time. Further, the IC50 in data set [3] stood at 19 µM. Moreover, the fold change (FC) in data set [4] came to 1.5. Also, the outcome in data set [5] was inactive.

In the case of `Cc1cccc(C)c1CN(NC(=O)[C@H](C)NC(=O)[C@@H](Cc1c[nH]c2ccccc12)NC(=O)[C@@H](N)Cc1cnc[nH]1)C(=O)N[C@H](Cc1ccccc1)C(=O)N[C@@H](CCCCN)C(N)=O`, the inhibition entry in data set [1] and in data set [2] was “Active” throughout. The molecule further came in with an IC50 in data set [3] of 5.51 µM. For the same molecule, the fold change (FC) in data set [4] stood at 5.1. For the same molecule, the outcome in data set [5] was inactive.

Consider `COc1ccc(CN(NC(=O)[C@H](C)NC(=O)[C@@H](Cc2c[nH]c3ccccc23)NC(=O)[C@H](C)N)C(=O)N[C@H](Cc2ccccc2)C(=O)N[C@@H](CCCCN)C(N)=O)cc1`, for which the inhibition entry in data set [1] and in data set [2] was “Active” each time.

On to `C[C@H](NC(=O)[C@@H](Cc1c[nH]c2ccccc12)NC(=O)[C@@H](N)Cc1cnc[nH]1)C(=O)NN(CCCCCN)C(=O)N[C@H](Cc1ccccc1)C(=O)N[C@@H](CCCCN)C(N)=O`, for which the inhibition result in data set [1] and in data set [2] was “inactive” throughout.

In turn, `C[C@H](N)C(=O)N[C@H](Cc1c[nH]c2ccccc12)C(=O)N[C@@H](C)C(=O)NN(Cc1ccc(Cl)cc1)C(=O)N[C@H](Cc1ccccc1)C(=O)N[C@@H](CCCCN)C(N)=O` came in with a half-inhibitory concentration (IC50) in data set [3] of 4.94 µM. In data set [4], this molecule showed a fold change (FC) of 5.7. In data set [5], the result was Active.

Consider `C[C@H](NC(=O)[C@@H](Cc1c[nH]c2ccccc12)NC(=O)[C@@H](N)Cc1cnc[nH]1)C(=O)NN(Cc1ccc(Cl)cc1)C(=O)N[C@H](Cc1ccccc1)C(=O)N[C@@H](CCCCN)C(N)=O`, for which the inhibition result in data set [1] and in data set [2] was “Active” throughout. Besides, the IC50 in data set [3] is 8.36 µM. Also, in data set [4], the fold change (FC) stood at 3.4. Further, the Activity result in data set [6] is listed as “Toxic”.

On to `COc1cc(Cl)c(CN(NC(=O)[C@H](C)NC(=O)[C@@H](Cc2c[nH]c3ccccc23)NC(=O)[C@@H](N)Cc2cnc[nH]2)C(=O)N[C@H](Cc2ccccc2)C(=O)N[C@@H](CCCCN)C(N)=O)c(Cl)c1`, for which the inhibition entry in data set [1] and in data set [2] was “inactive” throughout.

In the case of `C[C@H](NC(=O)[C@@H](Cc1c[nH]c2ccccc12)NC(=O)[C@@H](N)Cc1cnc[nH]1)C(=O)NN(Cc1ccc([N+](=O)[O-])cc1)C(=O)N[C@H](Cc1ccccc1)C(=O)N[C@@H](CCCCN)C(N)=O`, the inhibition entry in data set [1] and in data set [2] was “inactive” in each case.

For `C[C@H](NC(=O)[C@@H](Cc1c[nH]c2ccccc12)NC(=O)[C@@H](N)Cc1cnc[nH]1)C(=O)NN(Cc1c[nH]nn1)C(=O)N[C@H](Cc1ccccc1)C(=O)N[C@@H](CCCCN)C(N)=O`, the inhibition result in data set [1] and in data set [2] was “inactive” in each case.

As for `C[C@H](N)C(=O)N[C@H](Cc1c[nH]c2ccccc12)C(=O)N[C@@H](C)C(=O)NN(Cc1ccc(C(F)(F)F)cc1)C(=O)N[C@H](Cc1ccccc1)C(=O)N[C@@H](CCCCN)C(N)=O`, the inhibition result in data set [1] and in data set [2] was “inactive” in each case.

On to `COc1ccc(CN(NC(=O)[C@H](C)NC(=O)[C@@H](Cc2c[nH]c3ccccc23)NC(=O)[C@@H](N)Cc2cnc[nH]2)C(=O)N[C@H](Cc2ccccc2)C(=O)N[C@@H](CCCCN)C(N)=O)cc1`, for which the inhibition result in data set [1] and in data set [2] was “Active” throughout. Also, the IC50 in data set [3] was found to be 7.51 µM. In data set [4], this molecule yielded a fold change (FC) of 3.7. In addition, the outcome in data set [5] was Active.

Turning to `C[C@H](N)C(=O)N[C@H](Cc1c[nH]c2ccccc12)C(=O)N[C@@H](C)C(=O)NN(Cc1ccc(I)cc1)C(=O)N[C@H](Cc1ccccc1)C(=O)N[C@@H](CCCCN)C(N)=O`, the inhibition result in data set [1] and in data set [2] was “inactive” in each case.

`C[C@H](NC(=O)[C@@H](Cc1c[nH]c2ccccc12)NC(=O)[C@@H](N)Cc1cnc[nH]1)C(=O)NN(Cc1ccc(C(F)(F)F)cc1)C(=O)N[C@H](Cc1ccccc1)C(=O)N[C@@H](CCCCN)C(N)=O`: the inhibition entry in data set [1] and in data set [2] was “inactive” each time.

`COc1cc(Cl)cc(Cl)c1CN(NC(=O)[C@H](C)NC(=O)[C@@H](Cc1c[nH]c2ccccc12)NC(=O)[C@@H](N)Cc1cnc[nH]1)C(=O)N[C@H](Cc1ccccc1)C(=O)N[C@@H](CCCCN)C(N)=O`: the inhibition entry in data set [1] and in data set [2] was “inactive” in each case.

As to `C[C@H](NC(=O)[C@@H](Cc1c[nH]c2ccccc12)NC(=O)[C@@H](N)Cc1cnc[nH]1)C(=O)NN(Cc1ccc(O)cc1)C(=O)N[C@H](Cc1ccccc1)C(=O)N[C@@H](CCCCN)C(N)=O` (H-H[dW]A[azaTyr][dF]K-NH2), the inhibition entry in data set [1] and in data set [2] was “inactive” throughout. Besides, the concentration for half-maximal inhibition (IC50) in data set [3] was found to be 1.9 µM. This molecule also came in with a fold change (FC) in data set [4] of 14.8. Also, the outcome in data set [5] was Active.

On to `CC(C)Oc1ccc(CN(NC(=O)[C@H](C)NC(=O)[C@@H](Cc2c[nH]c3ccccc23)NC(=O)[C@@H](N)Cc2cnc[nH]2)C(=O)N[C@H](Cc2ccccc2)C(=O)N[C@@H](CCCCN)C(N)=O)cc1`, for which the inhibition result in data set [1] and in data set [2] was “inactive” throughout.

Turning to `Cc1[nH]c2ccccc2c1C[C@@H](NC(=O)[C@@H](N)Cc1c[nH]cn1)C(=O)N[C@@H](C)C(=O)N[C@@H](Cc1c[nH]c2ccccc12)C(=O)N[C@H](Cc1ccccc1)C(=O)N[C@@H](CCCCN)C(N)=O` (H-H[dTrp(2-Me)]AW[dF]K-NH2), the fold change (FC) in data set [4] stood at 18.1.

In the case of `C[C@H](NC(=O)[C@@H](Cc1c[nH]c2ccccc12)NC(=O)[C@@H](N)Cc1cnc[nH]1)C(=O)NN(Cc1c(F)cc(F)cc1F)C(=O)N[C@H](Cc1ccccc1)C(=O)N[C@@H](CCCCN)C(N)=O`, the inhibition entry in data set [1] and in data set [2] was “inactive” each time.

In data set [3], `C[C@H](N)C(=O)N[C@H](Cc1c[nH]c2ccccc12)C(=O)N[C@@H](C)C(=O)NN(Cc1ccc(Br)cc1)C(=O)N[C@H](Cc1ccccc1)C(=O)N[C@@H](CCCCN)C(N)=O` had a half-inhibitory concentration (IC50) of 12.5 µM. The fold change (FC) in data set [4] came to 2.2. The outcome in data set [5] was inactive.

Take `C[C@H](N)C(=O)N[C@H](Cc1c[nH]c2ccccc12)C(=O)N[C@@H](C)C(=O)NN(Cc1ccc([N+](=O)[O-])cc1)C(=O)N[C@H](Cc1ccccc1)C(=O)N[C@@H](CCCCN)C(N)=O`: the inhibition result in data set [1] and in data set [2] was “Active” in each case.

Consider `C[C@H](NC(=O)[C@@H](Cc1c[nH]c2ccccc12)NC(=O)[C@@H](N)Cc1cnc[nH]1)C(=O)NN(Cc1ccc(I)cc1)C(=O)N[C@H](Cc1ccccc1)C(=O)N[C@@H](CCCCN)C(N)=O`, for which the inhibition entry in data set [1] and in data set [2] was “inactive” in each case.

On to `C[C@H](NC(=O)[C@@H](Cc1c[nH]c2ccccc12)NC(=O)[C@@H](N)Cc1cnc[nH]1)C(=O)NN(Cc1cccc(O)c1)C(=O)N[C@H](Cc1ccccc1)C(=O)N[C@@H](CCCCN)C(N)=O`, for which the inhibition entry in data set [1] and in data set [2] was “inactive” each time. This molecule also gave an IC50 in data set [3] of 28.2 µM. Further, the result in data set [5] was inactive.

For `C[C@H](NC(=O)[C@@H](Cc1c[nH]c2ccccc12)NC(=O)[C@@H](N)Cc1cnc[nH]1)C(=O)NN(Cc1ccc(F)cc1)C(=O)N[C@H](Cc1ccccc1)C(=O)N[C@@H](CCCCN)C(N)=O`, the inhibition result in data set [1] and in data set [2] was “Active” each time. Besides, the IC50 in data set [3] stood at 6.06 µM. The same molecule had a fold change (FC) in data set [4] of 4.6. Further, in data set [5], the outcome was Active.

Consider `Cc1cc(F)cc(C)c1CN(NC(=O)[C@H](C)NC(=O)[C@@H](Cc1c[nH]c2ccccc12)NC(=O)[C@@H](N)Cc1cnc[nH]1)C(=O)N[C@H](Cc1ccccc1)C(=O)N[C@@H](CCCCN)C(N)=O`, for which the inhibition result in data set [1] and in data set [2] was “Active” each time. The molecule further had an IC50 in data set [3] of 5.58 µM. Besides, the fold change (FC) in data set [4] amounted to 5. Besides, the outcome in data set [5] was inactive.

For the molecule `C[C@H](N)C(=O)N[C@H](Cc1c[nH]c2ccccc12)C(=O)N[C@@H](C)C(=O)NN(Cc1ccc(O)cc1)C(=O)N[C@H](Cc1ccccc1)C(=O)N[C@@H](CCCCN)C(N)=O` (H-A[dW]A[azaTyr][dF]K-NH2), in data set [3], the IC50 came to 9.19 µM. Further, the fold change (FC) in data set [4] was 3.1. For the same molecule, the outcome in data set [5] was inactive.

Take `C[C@H](NC(=O)[C@@H](Cc1c[nH]c2ccccc12)NC(=O)[C@@H](N)Cc1cnc[nH]1)C(=O)NN(Cc1ccccc1)C(=O)N[C@H](Cc1ccccc1)C(=O)N[C@@H](CCCCN)C(N)=O` (H-H[dW]A[azaPhe][dF]K-NH2): the inhibition entry in data set [1] and in data set [2] was “inactive” each time. Also, in data set [3], the IC50 was 10.1 µM. The same molecule returned a fold change (FC) in data set [4] of 2.8. Besides, in data set [5], the result was inactive.

For orientation: IC50 means the concentration that gives 50% inhibition. A lower IC50 goes with higher potency.
